Tests used:
Test in all cases: relative viability (nuclei count vs DMSO), 5 days (fraction); higher = more cells survive
Calu-6 = test system: Calu-6
How it was run: (§1)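 Nuclei were stained with Hoechst during a one-step fixation (final 0.05% Triton X-100, 1% formaldehyde, 1 ug/ml Hoechst) carried out 5 days after dosing, then counted on 4× images. The cells, lung cancer lines in 1536-well plates, had been dosed by pin tool the day after seeding with one drug alone or a fixed anchor-drug dose plus five library-drug doses (not always all listed) in √10 steps. Relative viability is the nuclei count in treated wells divided by that in vehicle wells, and each value is the median of duplicate plates.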

COR-L 105 = test system: COR-L 105
How it was run: as §1

LK-2 = test system: LK-2
How it was run: as §1

A549 = test system: A549
How it was run: as §1

EBC-1 = test system: EBC-1
How it was run: as §1

IA-LM = test system: IA-LM
How it was run: as §1

LCLC-103H = test system: LCLC-103H
How it was run: as §1

NCI-H1355 = test system: NCI-H1355
How it was run: as §1

NCI-H1299 = test system: NCI-H1299
How it was run: as §1

NCI-H520 = test system: NCI-H520
How it was run: as §1

NCI-H1703 = test system: NCI-H1703
How it was run: as §1

NCI-H1666 = test system: NCI-H1666
How it was run: as §1

Work on `COc1cc2nccc(Oc3ccc(NC(=O)Nc4cc(C)on4)c(Cl)c3)c2cc1OC` [Tivozanib] + C[C@@H](Oc1cc(-c2cnn(C3CCNCC3)c2)cnc1N)c1c(Cl)ccc(F)c1Cl [Crizotinib] (partner 1 µM) yielded a relative viability (Calu-6; first compound 0.005 µM) of 0.778, a relative viability (Calu-6; first compound 0.01581 µM) of 0.772 and a relative viability (Calu-6; first compound 0.05 µM) of 0.706. For the same molecule, the relative viability (Calu-6; first compound 0.1581 µM) was 0.839, the relative viability (Calu-6; first compound 0.5 µM) was 0.711 and the relative viability (COR-L 105; first compound 0.01581 µM) was 0.794. It also gave a relative viability (COR-L 105; first compound 0.05 µM) of 0.797, a relative viability (COR-L 105; first compound 0.1581 µM) of 0.775 and a relative viability (COR-L 105; first compound 0.5 µM) of 0.701. For the same molecule, the relative viability (LK-2; first compound 0.005 µM) was 0.253, the relative viability (LK-2; first compound 0.01581 µM) was 0.264 and the relative viability (LK-2; first compound 0.05 µM) was 0.221. The relative viability (LK-2; first compound 0.1581 µM) was 0.198, the relative viability (LK-2; first compound 0.5 µM) was 0.22 and the relative viability (A549; first compound 0.005 µM) was 0.765. For the same molecule, the relative viability (A549; first compound 0.01581 µM) was 0.793, the relative viability (A549; first compound 0.05 µM) was 0.694 and the relative viability (A549; first compound 0.1581 µM) was 0.828. The relative viability (A549; first compound 0.5 µM) was 0.652, the relative viability (EBC-1; first compound 0.005 µM) was 0.182 and the relative viability (EBC-1; first compound 0.01581 µM) was 0.186. It also gave a relative viability (EBC-1; first compound 0.05 µM) of 0.211, a relative viability (EBC-1; first compound 0.1581 µM) of 0.207 and a relative viability (EBC-1; first compound 0.5 µM) of 0.192. The relative viability (IA-LM; first compound 0.01581 µM) was 0.716, the relative viability (IA-LM; first compound 0.05 µM) was 1.04 and the relative viability (IA-LM; first compound 0.1581 µM) was 0.507. The relative viability (IA-LM; first compound 0.5 µM) was 0.494, the relative viability (LCLC-103H; first compound 0.005 µM) was 1.04 and the relative viability (LCLC-103H; first compound 0.01581 µM) was 0.952. It also gave a relative viability (LCLC-103H; first compound 0.05 µM) of 1.04, a relative viability (LCLC-103H; first compound 0.1581 µM) of 1.03 and a relative viability (LCLC-103H; first compound 0.5 µM) of 1.06. The relative viability (NCI-H1355; first compound 0.005 µM) was 1.03, the relative viability (NCI-H1355; first compound 0.01581 µM) was 1.03 and the relative viability (NCI-H1355; first compound 0.05 µM) was 1.08. The relative viability (NCI-H1355; first compound 0.5 µM) was 1.07, the relative viability (NCI-H1299; first compound 0.005 µM) was 0.922 and the relative viability (NCI-H1299; first compound 0.01581 µM) was 0.971. The relative viability (NCI-H1299; first compound 0.05 µM) was 0.968, the relative viability (NCI-H1299; first compound 0.1581 µM) was 0.991 and the relative viability (NCI-H1299; first compound 0.5 µM) was 0.906. It also gave a relative viability (NCI-H520; first compound 0.005 µM) of 0.822, a relative viability (NCI-H520; first compound 0.01581 µM) of 0.827 and a relative viability (NCI-H520; first compound 0.05 µM) of 0.895. For the same molecule, the relative viability (NCI-H520; first compound 0.1581 µM) was 0.713, the relative viability (NCI-H520; first compound 0.5 µM) was 0.603 and the relative viability (NCI-H1703; first compound 0.005 µM) was 0.239. For the same molecule, the relative viability (NCI-H1703; first compound 0.01581 µM) was 0.194, the relative viability (NCI-H1703; first compound 0.05 µM) was 0.163 and the relative viability (NCI-H1703; first compound 0.1581 µM) was 0.157. The relative viability (NCI-H1703; first compound 0.5 µM) was 0.155, the relative viability (NCI-H1666; first compound 0.005 µM) was 0.963 and the relative viability (NCI-H1666; first compound 0.01581 µM) was 0.905. For the same molecule, the relative viability (NCI-H1666; first compound 0.05 µM) was 0.901, the relative viability (NCI-H1666; first compound 0.1581 µM) was 1.21 and the relative viability (NCI-H1666; first compound 0.5 µM) was 0.853.

Work on `Nc1ccn([C@@H]2O[C@H](CO)[C@@H](O)[C@@H]2O)c(=O)n1` [Cytarabine] + C[C@@H](Oc1cc(-c2cnn(C3CCNCC3)c2)cnc1N)c1c(Cl)ccc(F)c1Cl [Crizotinib] (partner 1 µM) yielded a relative viability (Calu-6; first compound 0.005 µM) of 0.722, a relative viability (Calu-6; first compound 0.01581 µM) of 0.706 and a relative viability (Calu-6; first compound 0.05 µM) of 0.623. For the same molecule, the relative viability (Calu-6; first compound 0.1581 µM) was 0.433, the relative viability (Calu-6; first compound 0.5 µM) was 0.259 and the relative viability (COR-L 105; first compound 0.005 µM) was 0.657. For the same molecule, the relative viability (COR-L 105; first compound 0.01581 µM) was 0.725, the relative viability (COR-L 105; first compound 0.05 µM) was 0.511 and the relative viability (COR-L 105; first compound 0.1581 µM) was 0.393. For the same molecule, the relative viability (COR-L 105; first compound 0.5 µM) was 0.256, the relative viability (LK-2; first compound 0.005 µM) was 0.262 and the relative viability (LK-2; first compound 0.01581 µM) was 0.305. For the same molecule, the relative viability (LK-2; first compound 0.05 µM) was 0.208, the relative viability (LK-2; first compound 0.1581 µM) was 0.196 and the relative viability (LK-2; first compound 0.5 µM) was 0.205. For the same molecule, the relative viability (A549; first compound 0.005 µM) was 0.541, the relative viability (A549; first compound 0.01581 µM) was 0.53 and the relative viability (A549; first compound 0.05 µM) was 0.449. The relative viability (A549; first compound 0.1581 µM) was 0.0819, the relative viability (A549; first compound 0.5 µM) was 0.0747 and the relative viability (EBC-1; first compound 0.01581 µM) was 0.171. For the same molecule, the relative viability (EBC-1; first compound 0.05 µM) was 0.178, the relative viability (EBC-1; first compound 0.1581 µM) was 0.149 and the relative viability (EBC-1; first compound 0.5 µM) was 0.159. It also gave a relative viability (IA-LM; first compound 0.005 µM) of 0.864, a relative viability (IA-LM; first compound 0.01581 µM) of 0.62 and a relative viability (IA-LM; first compound 0.05 µM) of 0.729. The relative viability (IA-LM; first compound 0.1581 µM) was 0.414, the relative viability (IA-LM; first compound 0.5 µM) was 0.121 and the relative viability (LCLC-103H; first compound 0.005 µM) was 0.942. The relative viability (LCLC-103H; first compound 0.01581 µM) was 1.03, the relative viability (LCLC-103H; first compound 0.05 µM) was 1.07 and the relative viability (LCLC-103H; first compound 0.1581 µM) was 1.03. It also gave a relative viability (LCLC-103H; first compound 0.5 µM) of 0.977, a relative viability (NCI-H1355; first compound 0.005 µM) of 0.998 and a relative viability (NCI-H1355; first compound 0.01581 µM) of 1.03. For the same molecule, the relative viability (NCI-H1355; first compound 0.05 µM) was 0.973, the relative viability (NCI-H1355; first compound 0.1581 µM) was 0.46 and the relative viability (NCI-H1355; first compound 0.5 µM) was 0.399. The relative viability (NCI-H1299; first compound 0.005 µM) was 0.956, the relative viability (NCI-H1299; first compound 0.01581 µM) was 0.99 and the relative viability (NCI-H1299; first compound 0.05 µM) was 1.03. It also gave a relative viability (NCI-H1299; first compound 0.1581 µM) of 0.961, a relative viability (NCI-H1299; first compound 0.5 µM) of 0.943 and a relative viability (NCI-H520; first compound 0.005 µM) of 0.56. It also gave a relative viability (NCI-H520; first compound 0.01581 µM) of 0.758, a relative viability (NCI-H520; first compound 0.05 µM) of 0.831 and a relative viability (NCI-H520; first compound 0.1581 µM) of 0.56. For the same molecule, the relative viability (NCI-H520; first compound 0.5 µM) was 0.469, the relative viability (NCI-H1703; first compound 0.005 µM) was 0.484 and the relative viability (NCI-H1703; first compound 0.01581 µM) was 0.375. It also gave a relative viability (NCI-H1703; first compound 0.05 µM) of 0.299, a relative viability (NCI-H1703; first compound 0.1581 µM) of 0.148 and a relative viability (NCI-H1703; first compound 0.5 µM) of 0.205. For the same molecule, the relative viability (NCI-H1666; first compound 0.005 µM) was 0.794, the relative viability (NCI-H1666; first compound 0.01581 µM) was 0.945 and the relative viability (NCI-H1666; first compound 0.05 µM) was 0.612. It also gave a relative viability (NCI-H1666; first compound 0.1581 µM) of 0.358 and a relative viability (NCI-H1666; first compound 0.5 µM) of 0.388.

— the supplement of paper PMC10307832
